Measurements from article PMC5387044, “Analogs of the Frog-skin Antimicrobial Peptide Temporin 1Tb Exhibit a Wider Spectrum of Activity and a Stronger Antibiofilm Potential as Compared to the Parental Peptide” (Frontiers in Chemistry, 2017).
Marks after values point to notes of the source that are not given here. No end group written: not given here.

Columns and labels:
[1] = tested on: S. aureus ATCC 33591 biofilm formation; assay type: cell-based, Staphylococcus aureus
S. aureus ATCC 33591 [2] = conditions: for MIC: ATCC 33591, 24 h
P. aeruginosa ATCC 27853 [3] = conditions: ATCC 27853, 24 h, pH 7.4
[4] = tested on: K. pneumoniae ATCC BAA-1706; conditions: ATCC BAA-1706, 24 h, pH 7.4
P. aeruginosa ATCC 27853 [5] = assay type: cell-based, Pseudomonas aeruginosa; conditions: pH 7.4
[6] = tested on: human peripheral blood mononuclear cells (PBMCs); conditions: 24 h
[7] = tested on: P. aeruginosa ATCC 27853 biofilm formation
S. aureus ATCC 33591 [8] = assay type: cell-based, Staphylococcus aureus; conditions: pH 7.4
[9] = tested on: S. epidermidis ATCC 35984; conditions: ATCC 35984, 24 h, pH 7.4
[10] = tested on: preformed biofilms of P. aeruginosa ATCC 27853; test: Biofilm treatment assay on preformed (24-h old) biofilms, CFU counting, alone and with EDTA; assay type: cell-based, Pseudomonas aeruginosa; conditions: 30 μM peptide + 2.5 mM EDTA
[11] = tested on: human non-small-cell lung adenocarcinoma A549 cells; conditions: 24 h
P. aeruginosa ATCC 27853 [12] = conditions: for FIC index / MIC: ATCC 27853, 24 h
S. aureus ATCC 33591 [13] = conditions: ATCC 33591, 24 h, pH 7.4
[14] = tested on: preformed biofilms of S. aureus ATCC 33591; test: Biofilm treatment assay on preformed (24-h old) biofilms, CFU counting, alone and with EDTA; assay type: cell-based, Staphylococcus aureus; conditions: 30 μM peptide alone
Experimental: The activity of TB, TB_L1FK, and TB_KKG6A against preformed (24-h old) biofilms of S. aureus and P. aeruginosa was also investigated. Briefly, biofilms were allowed to form for 24 h in flat-bottom 96-well microplates in the absence of antimicrobial compounds. Established biofilms were then washed three times with PBS in order to remove non-adherent cells and incubated in fresh BPM with different concentrations of the three peptides (from 15 to 120 μM). After 24 h of incubation, the viability of biofilm-associated cells was evaluated by CFU counting. For this purpose, biofilms were washed three times with PBS and bacterial cells were detached from the surface of the wells with a pipette tip, vigorously vortexed and plated in serial dilutions on TSA.
TB_L1FK and TB_KKG6A were combined with EDTA in order to enhance their activity against preformed biofilms of S. aureus and P. aeruginosa. […] Following incubation, the antibiofilm effect was evaluated in terms of number of biofilm-associated viable cells as previously described.
Figure 4 Activity of TB_L1FK and TB_KKG6A, used alone and in combination with EDTA, against preformed (24-h old) biofilms of S. aureus ATCC 33591 (A,B) and P. aeruginosa ATCC 27853 (C,D). The antibiofilm activity of the peptides, EDTA and the peptide-EDTA combinations was evaluated by CFU counting after 24 h of incubation. […]

| Substance | Reduction of biofilm formation vs untreated control [1] | FIC index (S. aureus ATCC 33591 [2]) | MIC (S. aureus ATCC 33591 [2]) | MBC (P. aeruginosa ATCC 27853 [3]) | MBC [4] | Time to complete eradication of the starting bacterial inoculum (P. aeruginosa ATCC 27853 [5]) | IC50 [6] | Inhibitory activity on forming biofilms [7] | Time to bactericidal effect (reduction of at least 3 Log10 in viable bacteria) (S. aureus ATCC 33591 [8]) | MBC [9] | Reduction in CFU number of peptide-EDTA combination compared to the peptide used alone [10] | IC50 [11] | Concentration of the peptide resulting in a synergistic effect (P. aeruginosa ATCC 27853 [12]) | FIC index (P. aeruginosa ATCC 27853 [12]) | MIC (P. aeruginosa ATCC 27853 [12]) | MBC (S. aureus ATCC 33591 [13]) | Decrease in the number of biofilm-associated viable cells vs untreated biofilms [14] | Time to bactericidal effect (P. aeruginosa ATCC 27853 [5]) | Inhibition of biofilm biomass ([7]; ATCC 27853, 24 h, 24 μM) |
| --- | --- | --- | --- | --- | --- | --- | --- | --- | --- | --- | --- | --- | --- | --- | --- | --- | --- | --- | --- |
| FLPIVGLLKSLLK-NH2 [TB_L1FK] | more than 50% | > 0.5 | 15 µM | 6 µM | 6 µM | ≤ 5 min | 52 µM | no inhibitory activity | ≤ 30 min | 1.5 µM | approximately 1 Log10 | 59 µM | 0.25 (15 μM)^b | 0.25 (15 μM)^b | 120 µM | 6 µM | approximately 2 Log10 |  |  |
| KKLLPIVANLLKSLL-NH2 [TB_KKG6A] | more than 50% | > 0.5 | 7.5 µM | 3 µM | 3 µM |  | 49 µM |  | ≤ 60 min | 1.5 µM | approximately 1 Log10 | 16 µM | 0.25 (3.75 μM) | 0.25 (3.75 μM) | 30 µM | 1.5 µM | approximately 2 Log10 | 15 min | 80% |
